# System: NTS clinical isolates
# Test: Antibiotics susceptibility test to ampicillin (CLSI disc inhibition zone and/or MIC); further: key: R = Resistant to ampicillin; S = Susceptible to ampicillin
# Assay type: cell-based, non-typhoidal Salmonella
# Protocol: Before the NGS study, the antimicrobial susceptibility to ampicillin in the 169 isolates was re-confirmed using the disc inhibition zones or MICs (FIG. 1). Then, the bacterial DNAs were extracted from 53 NTS isolates and NGS was performed using the Illumina© MiSeq sequencer. Subsequently, the NTS serotypes of 53 NTS clinical isolates were confirmed by multilocus sequence typing (MLST) as shown in Table 1. The big genomic data were analyzed to examine presence of plasmid-mediated genes or genetic mutations in the bacterial genome of Salmonella spp. and other bacteria reported in the PubMed, ARG-ANNOT, CARD, and ResFinder (FIG. 1).
# The 169 NTS clinical isolates were tested for antimicrobial susceptibility based on (CLSI) guidelines. Briefly, bacteria were spread onto Mueller-Hinton MH agar, and co-incubated with antimicrobial disks (Oxoid, Cambridge, UK) of ampicillin individually at 37° C. for 18 hours. Another alternative is measurement of the minimum inhibitory concentrations (MICs) of ampicillin in serial dilutions of ampicillin co-cultured with bacterial solution of NTS isolates. Finally, the resistance to ampicillin in NTS isolates was determined according to the diameter of inhibition zone (≤13 mm) and/or the MIC of ampicillin>16 μg/mL according to the guideline of CLSI.
compound,measurement,setting,value
CC1(C)S[C@@H]2[C@H](NC(=O)[C@H](N)c3ccccc3)C(=O)N2[C@H]1C(=O)O [ampicillin],AMP-R,"NTS isolate SH-12, serotype Amsterdam",S
same,AMP-R,"NTS isolate SH-A1, serotype Enteritidis",S
same,AMP-R,"NTS isolate SH-B2, serotype Enteritidis",R
same,AMP-R,"NTS isolate SH-B5, serotype Enteritidis",R
same,AMP-R,"NTS isolate SH-C2, serotype Newport",S
same,AMP-R,"NTS isolate SH-C3, serotype Enteritidis",S
same,AMP-R,"NTS isolate SH-C4, serotype Typhimurium",R
same,AMP-R,"NTS isolate SH-D2, serotype Enteritidis",S
same,AMP-R,"NTS isolate SH-D4, serotype Enteritidis",S
same,AMP-R,"NTS isolate SH-D5, serotype Typhimurium",S
same,AMP-R,"NTS isolate SH-E1, serotype Unknown",R
same,AMP-R,"NTS isolate SH-E2, serotype Virchow",S
same,AMP-R,"NTS isolate SH-E3, serotype Newport",S
same,AMP-R,"NTS isolate SH-F4, serotype Typhimurium",R
same,AMP-R,"NTS isolate SH-F5, serotype Enteritidis",R
same,AMP-R,"NTS isolate SH-G1, serotype Stanley",S
same,AMP-R,"NTS isolate SH-G2, serotype Typhimurium",R
same,AMP-R,"NTS isolate SH-G3, serotype Enteritidis",R
same,AMP-R,"NTS isolate SH-G5, serotype Albany",R
same,AMP-R,"NTS isolate SH-H3, serotype Derby",S
same,AMP-R,"NTS isolate SH-H4, serotype Newport",R
same,AMP-R,"NTS isolate TSAR-C1, serotype Schwarzengrund",R
same,AMP-R,"NTS isolate TSAR-C2, serotype Schwarzengrund",R
same,AMP-R,"NTS isolate TSAR-C3, serotype Schwarzengrund",R
same,AMP-R,"NTS isolate TSAR-C4, serotype Typhimurium",R
same,AMP-R,"NTS isolate TSAR-C5, serotype Choleraesuis",R
same,AMP-R,"NTS isolate TSAR-C6, serotype Typhimurium",R
same,AMP-R,"NTS isolate TSAR-C7, serotype Typhimurium",R
same,AMP-R,"NTS isolate TSAR-C10, serotype Enteritidis",R
same,AMP-R,"NTS isolate TSAR-C13, serotype Stanley",R
same,AMP-R,"NTS isolate TSAR-C16, serotype Typhimurium",R
same,AMP-R,"NTS isolate TSAR-C19, serotype Stanley",R
same,AMP-R,"NTS isolate TSAR-E5, serotype Choleraesuis",R
same,AMP-R,"NTS isolate TSAR-E9, serotype Choleraesuis",R
same,AMP-R,"NTS isolate TSAR-E10, serotype Typhimurium",R
same,AMP-R,"NTS isolate TSAR-E16, serotype Virchow",R
same,AMP-R,"NTS isolate TSAR-E18, serotype Meleagridis",R
same,AMP-R,"NTS isolate TSAR-E19, serotype Newport",R
same,AMP-R,"NTS isolate TSAR-E20, serotype Typhimurium",R
same,AMP-R,"NTS isolate TSAR-N5, serotype Typhimurium",R
same,AMP-R,"NTS isolate TSAR-N8, serotype Typhimurium",R
same,AMP-R,"NTS isolate TSAR-N9, serotype Montevideo",R
same,AMP-R,"NTS isolate TSAR-N15, serotype Schwarzengrund",R
same,AMP-R,"NTS isolate TSAR-N16, serotype Agona",R
same,AMP-R,"NTS isolate TSAR-N19, serotype Enteritidis",R
same,AMP-R,"NTS isolate TSAR-S13, serotype Albany",R
same,AMP-R,"NTS isolate TSAR-S14, serotype Typhimurium",R
same,AMP-R,"NTS isolate TSAR-S15, serotype Enteritidis",R
same,AMP-R,"NTS isolate TSAR-S16, serotype Agona",R
same,AMP-R,"NTS isolate TSAR-S17, serotype Newport",R
same,AMP-R,"NTS isolate TSAR-S18, serotype Newport",R
same,AMP-R,"NTS isolate TSAR-S19, serotype Agona",R
same,AMP-R,"NTS isolate TSAR-S20, serotype Livingstone",R
